Measurements from ChEMBL document CHEMBL1143464, “Trifluoromethyl group as a pharmacophore: effect of replacing a CF3 group on binding and agonist activity of a glucocorticoid receptor ligand” (Bioorg Med Chem Lett, 2005).

Columns and labels:
Progesterone receptor = molecular target: T1, Progesterone receptor (Homo sapiens, UniProt P06401); assay: Binding affinity towards progesterone receptor using fluorescence polarization competitive binding assay
T1 sequence (P06401 whole entry): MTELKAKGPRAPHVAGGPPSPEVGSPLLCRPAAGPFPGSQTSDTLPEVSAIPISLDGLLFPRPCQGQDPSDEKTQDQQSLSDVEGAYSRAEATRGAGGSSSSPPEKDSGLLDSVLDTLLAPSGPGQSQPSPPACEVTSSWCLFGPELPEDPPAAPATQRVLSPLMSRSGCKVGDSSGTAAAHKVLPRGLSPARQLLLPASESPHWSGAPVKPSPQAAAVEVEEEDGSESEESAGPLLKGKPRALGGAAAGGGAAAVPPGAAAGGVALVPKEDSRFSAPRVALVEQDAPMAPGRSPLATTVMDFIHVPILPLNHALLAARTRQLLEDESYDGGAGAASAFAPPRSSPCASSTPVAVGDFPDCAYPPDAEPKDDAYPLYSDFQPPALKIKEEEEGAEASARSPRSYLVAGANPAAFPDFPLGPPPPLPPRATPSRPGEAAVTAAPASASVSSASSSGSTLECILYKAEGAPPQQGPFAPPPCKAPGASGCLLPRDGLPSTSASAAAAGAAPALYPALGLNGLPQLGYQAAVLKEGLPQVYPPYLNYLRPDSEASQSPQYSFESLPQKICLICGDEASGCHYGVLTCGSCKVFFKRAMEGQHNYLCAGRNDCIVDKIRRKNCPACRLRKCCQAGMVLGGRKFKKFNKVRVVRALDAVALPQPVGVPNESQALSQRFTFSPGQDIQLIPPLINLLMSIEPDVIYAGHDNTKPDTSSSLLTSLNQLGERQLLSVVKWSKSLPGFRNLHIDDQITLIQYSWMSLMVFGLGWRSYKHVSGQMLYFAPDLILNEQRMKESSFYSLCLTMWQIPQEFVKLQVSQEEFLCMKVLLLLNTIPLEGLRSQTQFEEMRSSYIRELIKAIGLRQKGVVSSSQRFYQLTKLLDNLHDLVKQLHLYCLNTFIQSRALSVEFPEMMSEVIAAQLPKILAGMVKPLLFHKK

Glucocorticoid receptor [1] = molecular target: T2, Glucocorticoid receptor (Homo sapiens, UniProt P04150); assay: Binding affinity towards glucocorticoid receptor using fluorescence polarization competitive binding assay
T2 sequence (P04150 whole entry): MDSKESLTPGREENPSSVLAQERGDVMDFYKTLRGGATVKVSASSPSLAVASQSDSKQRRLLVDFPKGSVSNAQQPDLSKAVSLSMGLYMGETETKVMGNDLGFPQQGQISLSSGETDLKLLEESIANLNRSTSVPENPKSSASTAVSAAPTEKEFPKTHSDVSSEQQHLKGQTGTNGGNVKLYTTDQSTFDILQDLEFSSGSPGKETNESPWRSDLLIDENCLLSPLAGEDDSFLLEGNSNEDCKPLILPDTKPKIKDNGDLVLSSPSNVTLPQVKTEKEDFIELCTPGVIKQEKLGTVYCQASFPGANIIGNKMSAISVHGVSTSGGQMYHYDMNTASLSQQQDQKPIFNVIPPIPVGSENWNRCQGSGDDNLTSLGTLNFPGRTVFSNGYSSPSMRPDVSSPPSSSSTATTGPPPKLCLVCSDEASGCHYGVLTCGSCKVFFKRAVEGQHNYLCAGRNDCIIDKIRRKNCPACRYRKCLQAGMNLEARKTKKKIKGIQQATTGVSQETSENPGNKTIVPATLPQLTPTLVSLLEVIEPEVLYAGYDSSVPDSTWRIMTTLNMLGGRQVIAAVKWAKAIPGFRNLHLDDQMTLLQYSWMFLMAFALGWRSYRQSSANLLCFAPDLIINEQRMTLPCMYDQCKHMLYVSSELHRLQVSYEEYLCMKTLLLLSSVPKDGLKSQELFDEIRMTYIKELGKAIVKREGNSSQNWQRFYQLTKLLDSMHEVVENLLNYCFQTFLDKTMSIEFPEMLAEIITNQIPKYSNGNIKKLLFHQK

[2] = molecular target: T3, Mineralocorticoid receptor (Homo sapiens, UniProt P08235); assay: Binding affinity towards mineralocorticoid receptor using fluorescence polarization competitive binding assay
T3 sequence (P08235 whole entry): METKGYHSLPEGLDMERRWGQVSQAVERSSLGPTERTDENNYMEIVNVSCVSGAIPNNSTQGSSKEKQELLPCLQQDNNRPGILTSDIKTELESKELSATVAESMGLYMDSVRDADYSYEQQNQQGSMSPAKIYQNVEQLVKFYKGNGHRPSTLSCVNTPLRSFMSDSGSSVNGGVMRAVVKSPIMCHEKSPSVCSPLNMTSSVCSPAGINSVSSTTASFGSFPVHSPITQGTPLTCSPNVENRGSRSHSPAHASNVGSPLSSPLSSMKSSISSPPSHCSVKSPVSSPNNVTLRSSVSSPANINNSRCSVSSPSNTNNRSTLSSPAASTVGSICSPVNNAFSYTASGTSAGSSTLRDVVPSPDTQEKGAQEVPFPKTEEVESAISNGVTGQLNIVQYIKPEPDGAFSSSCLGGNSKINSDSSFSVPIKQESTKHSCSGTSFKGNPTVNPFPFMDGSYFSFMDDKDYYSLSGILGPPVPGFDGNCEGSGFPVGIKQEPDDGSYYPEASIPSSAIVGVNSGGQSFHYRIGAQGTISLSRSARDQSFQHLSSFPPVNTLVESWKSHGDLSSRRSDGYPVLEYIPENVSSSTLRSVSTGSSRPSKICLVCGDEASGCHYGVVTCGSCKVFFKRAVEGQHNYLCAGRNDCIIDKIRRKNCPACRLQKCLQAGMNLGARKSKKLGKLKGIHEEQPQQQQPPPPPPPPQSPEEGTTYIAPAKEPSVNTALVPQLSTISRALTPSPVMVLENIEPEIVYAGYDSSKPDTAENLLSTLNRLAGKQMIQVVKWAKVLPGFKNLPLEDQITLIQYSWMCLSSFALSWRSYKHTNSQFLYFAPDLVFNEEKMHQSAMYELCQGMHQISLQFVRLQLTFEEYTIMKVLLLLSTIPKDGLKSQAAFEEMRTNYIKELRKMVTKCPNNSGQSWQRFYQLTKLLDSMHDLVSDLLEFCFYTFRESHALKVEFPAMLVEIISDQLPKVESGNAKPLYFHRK

Glucocorticoid receptor [3] = molecular target: T2, Glucocorticoid receptor; assay: Effective concentration against inhibition of Dexamethasone induced glucocorticoid receptor transactivation of mouse mammary tumor virus luciferase gene in HeLa cells; type: cell-based
Glucocorticoid receptor [4] = molecular target: T2, Glucocorticoid receptor; assay: Effective agonist concentration for transcriptional repression of IL-6 production in IL-1 stimulated human foreskin fibroblasts; type: functional

IC50 (Progesterone receptor) | IC50 (Glucocorticoid receptor [1]) | IC50 [2] | EC50 (Glucocorticoid receptor [3]) | EC50 (Glucocorticoid receptor [4]) | SMILES
330 nM | 72 nM | 175 nM | 760 nM | – | CC(C)(C)c1ccc(CC(O)(CC(C)(C)c2ccccc2)C(=O)Nc2ccc3c(c2)COC3=O)cc1 (stereo unspecified)
47 nM | 61 nM | – | – | – | CC(C)(CC(O)(Cc1ccccc1O)C(=O)Nc1ccc2c(c1)COC2=O)c1ccccc1 (stereo unspecified)
16 nM | 6 nM | 30 nM | 150 nM | 45 nM | CC(C)(CC(O)(C(=O)Nc1ccc2c(c1)COC2=O)C(F)(F)F)c1cc(F)ccc1O (stereo unspecified)
19 nM | 9 nM | 170 nM | 140 nM | – | CC(C)(CC(O)(CC1CCCCC1)C(=O)Nc1ccc2c(c1)COC2=O)c1ccccc1 (stereo in doubt; 6)
36 nM | 48 nM | – | – | – | Cc1ccccc1CC(O)(CC(C)(C)c1cc(F)ccc1O)C(=O)Nc1ccc2c(c1)COC2=O (stereo unspecified)
34 nM | 52 nM | – | – | – | Cc1cccc(CC(O)(CC(C)(C)c2cc(F)ccc2O)C(=O)Nc2ccc3c(c2)COC3=O)c1 (stereo unspecified)
40 nM | 9 nM | – | – | – | Cc1noc(=O)c2ccc(NC(=O)C(O)(CC3CCCCC3)CC(C)(C)c3ccccc3)cc12 (stereo unspecified)
85 nM | 230 nM | – | – | – | COc1ccc(F)cc1C(C)(C)CC(O)(C(=O)Nc1ccc2c(c1)COC2=O)C(F)(F)F (stereo unspecified)
35 nM | 9 nM | – | – | – | CC(C)(CC(O)(CC1CCCCC1)C(=O)Nc1ccc2c(c1)COC2=O)c1ccccc1 (single isomer, unassigned)
210 nM | 320 nM | – | – | – | CC(C)(CC(O)(CC1CCCCC1)C(=O)Nc1ccc2c(c1)COC2=O)c1ccccc1 (stereo in doubt)
42 nM | 20 nM | 140 nM | 130 nM | – | CC(C)(CC(O)(CC1CCCCC1)C(=O)Nc1ccc2c(c1)COC2=O)c1cc(F)ccc1O (stereo unspecified)
48 nM | 110 nM | – | – | – | CC(C)(CC(O)(Cc1ccc2ccccc2c1)C(=O)Nc1ccc2c(c1)COC2=O)c1ccccc1 (stereo unspecified)
36 nM | 79 nM | 215 nM | 150 nM | – | CC(C)(CC(O)(C(=O)Nc1ccc2c(c1)COC2=O)C(F)(F)F)c1ccccc1 (stereo unspecified)
180 nM | 740 nM | – | – | – | CC(C)(CC(O)(Cc1ccc(-c2ccccc2)cc1)C(=O)Nc1ccc2c(c1)COC2=O)c1ccccc1 (stereo unspecified)
85 nM | 370 nM | 60 nM | 2370 nM | – | CC(O)(CC(C)(C)c1ccccc1)C(=O)Nc1ccc2c(c1)COC2=O (stereo unspecified)
44 nM | 120 nM | – | – | – | CC(C)(CC(O)(Cc1cccc(O)c1)C(=O)Nc1ccc2c(c1)COC2=O)c1ccccc1 (stereo unspecified)
> 2000 nM | > 2000 nM | – | – | – | CC(C)(CC(O)C(=O)Nc1ccc2c(c1)COC2=O)c1ccccc1 (stereo unspecified)
160 nM | > 2000 nM | – | – | – | CC(C)(CC(O)(Cc1cc(O)cc(O)c1)C(=O)Nc1ccc2c(c1)COC2=O)c1ccccc1 (stereo unspecified)
35 nM | 52 nM | – | – | – | COc1ccc(F)cc1C(C)(C)CC(O)(Cc1ccccc1)C(=O)Nc1ccc2c(c1)COC2=O (stereo unspecified)
32 nM | 8 nM | 104 nM | 130 nM | – | Cc1noc(=O)c2ccc(NC(=O)C(O)(Cc3ccccc3)CC(C)(C)c3cc(F)ccc3O)cc12 (stereo unspecified)
35 nM | 60 nM | 190 nM | 420 nM | – | CC(C)(CC(O)(Cc1ccccc1)C(=O)Nc1ccc2c(c1)COC2=O)c1cc(F)ccc1O (stereo unspecified)
2000 nM | > 2000 nM | – | – | – | CC(C)(CC(Cc1ccccc1)C(=O)Nc1ccc2c(c1)COC2=O)c1ccccc1 (stereo unspecified)
210 nM | 200 nM | 315 nM | 620 nM | – | CC(C)C(O)(CC(C)(C)c1ccccc1)C(=O)Nc1ccc2c(c1)COC2=O (stereo unspecified)
22 nM | 4 nM | 41 nM | – | 10 nM | Cc1noc(=O)c2ccc(NC(=O)C(O)(CC(C)(C)c3cc(F)ccc3O)C(F)(F)F)cc12 (stereo unspecified)
400 nM | 760 nM | – | – | – | CC(C)(CC(O)(Cc1ccccn1)C(=O)Nc1ccc2c(c1)COC2=O)c1ccccc1 (stereo unspecified)
51 nM | 470 nM | – | – | – | Cc1cc(C)cc(CC(O)(CC(C)(C)c2cc(F)ccc2O)C(=O)Nc2ccc3c(c2)COC3=O)c1 (stereo unspecified)

SMILES | IC50 (Progesterone receptor) | IC50 (Glucocorticoid receptor [1]) | IC50 [2] | EC50 (Glucocorticoid receptor [3]) | EC50 (Glucocorticoid receptor [4])
CC(C)(CC(O)(CCc1ccccc1)C(=O)Nc1ccc2c(c1)COC2=O)c1ccccc1 (stereo unspecified) | 59 nM | 57 nM | – | – | –
CC(C)(CC(O)(Cc1ccccc1)C(=O)Nc1ccc2c(c1)COC2=O)c1ccccc1 (stereo unspecified) | 30 nM | 13 nM | 160 nM | 205 nM | –
Cc1noc(=O)c2ccc(NC(=O)C(O)(CC3CCCCC3)CC(C)(C)c3cc(F)ccc3O)cc12 (stereo unspecified) | 35 nM | 7 nM | 104 nM | 120 nM | –
CC(C)(CC(O)(C(=O)Nc1ccc2c(c1)COC2=O)c1ccccc1)c1ccccc1 (stereo unspecified) | 240 nM | 460 nM | – | – | –
Cc1noc(=O)c2ccc(NC(=O)C(O)(Cc3ccccc3)CC(C)(C)c3ccccc3)cc12 (stereo unspecified) | 30 nM | 7 nM | – | – | –
COc1ccc(F)cc1C(C)(C)CC(O)(CNc1ccc2c(c1)COC2=O)Cc1ccccc1 (stereo unspecified) | 80 nM | 81 nM | 195 nM | 610 nM | –
